Some test systems named below: ACHN renal; SNB-19 CNS; PC-3 prostate; OVCAR-3 ovarian; MALME-3M melanoma; OVCAR-4 ovarian; IGROV1 ovarian; UO-31 renal; MOLT-4 leukemia; M14 melanoma; UACC-257 melanoma; HS 578T breast; KM12 colon; T-47D breast; K-562 leukemia; NCI-H226 lung; MDA-MB-231 breast; SW-620 colon; NCI-H522 lung; NCI/ADR-RES ovarian.
Holding throughout (assay): inhibition of tumour cell growth, NCI panel, 48 h

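Tested at 5 concentrations; 48 h exposure; 96-well plates; endpoints linearly interpolated, else capped at highest concentration. Definition used: TGI = concentration required for complete inhibition of growth.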 Bounds are passed on as bounds.

Take `CCOC(=O)OC1C(Br)C2CCC1(C)C2(C)C` (stereo not given): the TGI in the assay with ACHN renal was determined as 29.2 µM; with SNB-19 CNS, 28.3 µM; in the assay on PC-3 prostate, 23.6 µM; in the assay on OVCAR-3 ovarian it was 28.8 µM; with MALME-3M melanoma, 31.3 µM; in the assay on OVCAR-4 ovarian, 25.1 µM. For the same molecule, the TGI in the assay with IGROV1 ovarian was 32.8 µM; with UO-31 renal it was 24.6 µM; in the assay on MOLT-4 leukemia it was 16.6 µM; with M14 melanoma, 25.6 µM; with UACC-257 melanoma, 29.5 µM; in the assay with HS 578T breast, 32.5 µM. For the same molecule, the TGI worked out at 28.4 µM in the assay on KM12 colon; 30.3 µM in the assay on T-47D breast; 20.1 µM with K-562 leukemia; 28.1 µM in the assay with NCI-H226 lung; 24.9 µM in the assay on MDA-MB-231 breast; 30.8 µM with SW-620 colon. Moreover, the results for the TGI in the assay on NCI-H522 lung and with NCI/ADR-RES ovarian were 30.2 µM and 32.7 µM, respectively.

As to `O=C1CCC2c3ccccc3NCN12` (stereo not given), the TGI with ACHN renal, in the assay with SNB-19 CNS, in the assay with PC-3 prostate, in the assay with OVCAR-3 ovarian, in the assay on MALME-3M melanoma and in the assay on OVCAR-4 ovarian was more than 100 µM throughout. In addition, the TGI in the assay with IGROV1 ovarian, in the assay on UO-31 renal, with MOLT-4 leukemia, in the assay with M14 melanoma, with UACC-257 melanoma and in the assay with HS 578T breast was more than 100 µM in each case. The TGI in the assay on KM12 colon, with T-47D breast, in the assay on K-562 leukemia, in the assay with NCI-H226 lung, with MDA-MB-231 breast and with SW-620 colon was more than 100 µM each time. Besides, the TGI with NCI-H522 lung and with NCI/ADR-RES ovarian was more than 100 µM throughout.

For `O=[N+]([O-])c1cc(N=Nc2c(O)ccc3cc(S(=O)(=O)O)ccc23)c(O)c([N+](=O)[O-])c1`, the TGI in the assay on ACHN renal, with SNB-19 CNS, in the assay on PC-3 prostate, in the assay on OVCAR-3 ovarian, in the assay on MALME-3M melanoma and with OVCAR-4 ovarian was more than 100 µM throughout. For the same molecule, the TGI in the assay on IGROV1 ovarian, in the assay with UO-31 renal, in the assay on MOLT-4 leukemia, in the assay with M14 melanoma, in the assay on UACC-257 melanoma and with HS 578T breast was more than 100 µM throughout. The TGI with KM12 colon, in the assay on T-47D breast, in the assay on K-562 leukemia, in the assay on NCI-H226 lung, in the assay with MDA-MB-231 breast and in the assay on SW-620 colon was more than 100 µM throughout. Also, the TGI in the assay on NCI-H522 lung and in the assay on NCI/ADR-RES ovarian was more than 100 µM throughout.

Turning to `COC(=O)c1c(C)c2c(c(C)c1C(=O)OC)-c1c(C)ccc3ccc(C)c-2c13`, the TGI with ACHN renal, in the assay on SNB-19 CNS, in the assay on PC-3 prostate, in the assay on OVCAR-3 ovarian, in the assay on MALME-3M melanoma and with OVCAR-4 ovarian was more than 100 µM throughout. For the same molecule, the TGI with IGROV1 ovarian, with UO-31 renal, in the assay on MOLT-4 leukemia, in the assay with M14 melanoma, in the assay on UACC-257 melanoma and in the assay on HS 578T breast was more than 100 µM each time. In addition, the TGI in the assay with KM12 colon is more than 100 µM; in the assay on T-47D breast, more than 95.7 µM; in the assay on K-562 leukemia, more than 100 µM; with NCI-H226 lung, more than 100 µM; with MDA-MB-231 breast it was more than 60.6 µM; in the assay on SW-620 colon, more than 94.5 µM. Besides, the TGI in the assay with NCI-H522 lung and with NCI/ADR-RES ovarian was more than 100 µM throughout.

With `CN(/N=C/c1ccccn1)C1=NCCCN1`, the TGI in the assay with ACHN renal, in the assay with SNB-19 CNS, in the assay with PC-3 prostate, with OVCAR-3 ovarian, with MALME-3M melanoma and in the assay on OVCAR-4 ovarian was more than 100 µM in each case. Besides, the TGI in the assay with IGROV1 ovarian, with UO-31 renal, in the assay on MOLT-4 leukemia, in the assay on M14 melanoma, in the assay on UACC-257 melanoma and in the assay with HS 578T breast was more than 100 µM in each case. The TGI with KM12 colon, with T-47D breast, with K-562 leukemia, in the assay on NCI-H226 lung, in the assay on MDA-MB-231 breast and in the assay on SW-620 colon was more than 100 µM throughout. Besides, the TGI in the assay with NCI-H522 lung and in the assay with NCI/ADR-RES ovarian was more than 100 µM throughout.

Take `O=C1OCC(c2ccc(Cl)cc2)=C1Cl`: the TGI was more than 100 µM with ACHN renal; more than 100 µM in the assay with SNB-19 CNS; 67.9 µM in the assay on PC-3 prostate; 44.4 µM with OVCAR-3 ovarian; 32.7 µM in the assay with MALME-3M melanoma; more than 100 µM in the assay with OVCAR-4 ovarian. The TGI in the assay with IGROV1 ovarian is 25.2 µM; in the assay on UO-31 renal, 33.9 µM; in the assay on MOLT-4 leukemia, more than 100 µM; in the assay on M14 melanoma, 41.8 µM; with UACC-257 melanoma it was more than 100 µM; with HS 578T breast, more than 100 µM. Besides, the TGI in the assay on KM12 colon is 36 µM; in the assay on T-47D breast, more than 100 µM; in the assay with K-562 leukemia it was 92.6 µM; with NCI-H226 lung, more than 100 µM; in the assay on MDA-MB-231 breast, 98.6 µM; in the assay with SW-620 colon, 61.2 µM. Further, the figures for the TGI with NCI-H522 lung and in the assay on NCI/ADR-RES ovarian were 35.9 µM and 55.8 µM, respectively.

For the molecule `CN(C)C(=S)C(Cl)(c1ccccc1)c1ccccc1`, the TGI with ACHN renal, in the assay with SNB-19 CNS, in the assay on PC-3 prostate, in the assay with OVCAR-3 ovarian, in the assay on MALME-3M melanoma and with OVCAR-4 ovarian was more than 100 µM throughout. The TGI in the assay with IGROV1 ovarian, in the assay with UO-31 renal, with MOLT-4 leukemia, in the assay on M14 melanoma, in the assay on UACC-257 melanoma and in the assay with HS 578T breast was more than 100 µM in each case. Further, the TGI in the assay with KM12 colon was more than 100 µM; in the assay on T-47D breast, 61.7 µM; in the assay with K-562 leukemia it was more than 100 µM; in the assay with NCI-H226 lung, more than 100 µM; in the assay on MDA-MB-231 breast it was more than 100 µM; with SW-620 colon, more than 100 µM. Moreover, the TGI in the assay on NCI-H522 lung and with NCI/ADR-RES ovarian was more than 100 µM throughout.

The values are drawn from PubChem BioAssay (NCI).
